From the NIST ThermoML archive (doi:10.1021/je4009415)
± gives the expanded uncertainty stated by the source.

Assay: xn = mol fraction of the nth substance listed
Details: Liquid, Vibrating tube method

CCC(=O)OC [methyl propanoate] + CCCCCCC
Details | mass density [kg/m3]
288.15 K, x1 = 0.0584 | 696.1 ± 0.27
288.15 K, x1 = 0.1524 | 710.11 ± 0.29
288.15 K, x1 = 0.2121 | 719.49 ± 0.31
288.15 K, x1 = 0.2626 | 728.22 ± 0.33
288.15 K, x1 = 0.2841 | 731.88 ± 0.34
288.15 K, x1 = 0.3577 | 745.5 ± 0.37
288.15 K, x1 = 0.4021 | 754.13 ± 0.39
288.15 K, x1 = 0.4565 | 765.31 ± 0.41
288.15 K, x1 = 0.5036 | 775.51 ± 0.44
288.15 K, x1 = 0.5554 | 787.28 ± 0.47
288.15 K, x1 = 0.6032 | 798.81 ± 0.5
288.15 K, x1 = 0.651 | 810.73 ± 0.53
288.15 K, x1 = 0.7008 | 824.05 ± 0.57
288.15 K, x1 = 0.742 | 835.61 ± 0.61
288.15 K, x1 = 0.7927 | 850.46 ± 0.66
288.15 K, x1 = 0.8457 | 866.96 ± 0.71
288.15 K, x1 = 0.953 | 903.48 ± 0.84
288.15 K, x1 = 1 | 921.21 ± 0.89
298.15 K, x1 = 0.0606 | 687.94 ± 0.27
298.15 K, x1 = 0.1046 | 694.01 ± 0.28
298.15 K, x1 = 0.1706 | 703.97 ± 0.3
298.15 K, x1 = 0.2332 | 713.99 ± 0.32
298.15 K, x1 = 0.2863 | 722.89 ± 0.34
298.15 K, x1 = 0.332 | 730.95 ± 0.35
298.15 K, x1 = 0.3827 | 740.59 ± 0.37
298.15 K, x1 = 0.4242 | 748.73 ± 0.39
298.15 K, x1 = 0.4831 | 760.98 ± 0.42
298.15 K, x1 = 0.5328 | 771.82 ± 0.45
298.15 K, x1 = 0.5887 | 784.89 ± 0.49
298.15 K, x1 = 0.6395 | 797.24 ± 0.52
298.15 K, x1 = 0.6831 | 808.46 ± 0.55
298.15 K, x1 = 0.733 | 821.94 ± 0.59
298.15 K, x1 = 0.7758 | 834.28 ± 0.63
298.15 K, x1 = 0.8196 | 847.29 ± 0.67
298.15 K, x1 = 0.8646 | 861.68 ± 0.72
298.15 K, x1 = 0.9035 | 874.46 ± 0.76
298.15 K, x1 = 0.9591 | 893.83 ± 0.83
298.15 K, x1 = 1 | 909.1 ± 0.88
308.15 K, x1 = 0.046 | 676.88 ± 0.27
308.15 K, x1 = 0.0974 | 683.97 ± 0.28
308.15 K, x1 = 0.1499 | 691.6 ± 0.29
308.15 K, x1 = 0.2093 | 700.71 ± 0.31
308.15 K, x1 = 0.2472 | 706.83 ± 0.32
308.15 K, x1 = 0.2655 | 709.84 ± 0.33
308.15 K, x1 = 0.3021 | 716.16 ± 0.34
308.15 K, x1 = 0.3462 | 723.99 ± 0.36
308.15 K, x1 = 0.3973 | 733.51 ± 0.38
308.15 K, x1 = 0.4379 | 741.49 ± 0.4
308.15 K, x1 = 0.5001 | 754.33 ± 0.43
308.15 K, x1 = 0.5482 | 764.86 ± 0.46
308.15 K, x1 = 0.6013 | 777.11 ± 0.49
308.15 K, x1 = 0.6438 | 787.52 ± 0.52
308.15 K, x1 = 0.7002 | 801.92 ± 0.56
308.15 K, x1 = 0.7516 | 815.93 ± 0.6
308.15 K, x1 = 0.7947 | 828.3 ± 0.64
308.15 K, x1 = 0.8541 | 846.5 ± 0.7
308.15 K, x1 = 0.8904 | 858.19 ± 0.74
308.15 K, x1 = 0.9494 | 878.31 ± 0.81
308.15 K, x1 = 1 | 896.91 ± 0.86
318.15 K, x1 = 0.054 | 669.26 ± 0.27
318.15 K, x1 = 0.1006 | 675.53 ± 0.28
318.15 K, x1 = 0.1635 | 684.64 ± 0.29
318.15 K, x1 = 0.1984 | 689.88 ± 0.3
318.15 K, x1 = 0.2627 | 699.98 ± 0.32
318.15 K, x1 = 0.2892 | 704.22 ± 0.33
318.15 K, x1 = 0.3492 | 714.64 ± 0.36
318.15 K, x1 = 0.3962 | 723.32 ± 0.38
318.15 K, x1 = 0.4482 | 733.48 ± 0.4
318.15 K, x1 = 0.5006 | 744.15 ± 0.42
318.15 K, x1 = 0.554 | 755.69 ± 0.45
318.15 K, x1 = 0.5928 | 764.54 ± 0.48
318.15 K, x1 = 0.6531 | 779.07 ± 0.52
318.15 K, x1 = 0.7022 | 791.53 ± 0.55
318.15 K, x1 = 0.7463 | 803.36 ± 0.59
318.15 K, x1 = 0.796 | 817.45 ± 0.63
318.15 K, x1 = 0.8421 | 831.26 ± 0.67
318.15 K, x1 = 0.8911 | 846.73 ± 0.72
318.15 K, x1 = 0.9487 | 866.17 ± 0.79
318.15 K, x1 = 1 | 884.71 ± 0.84
328.15 K, x1 = 0.0434 | 659.02 ± 0.27
328.15 K, x1 = 0.1 | 666.42 ± 0.28
328.15 K, x1 = 0.1539 | 673.86 ± 0.29
328.15 K, x1 = 0.2137 | 682.78 ± 0.31
328.15 K, x1 = 0.263 | 690.45 ± 0.32
328.15 K, x1 = 0.361 | 707.07 ± 0.36
328.15 K, x1 = 0.3858 | 711.54 ± 0.37
328.15 K, x1 = 0.4619 | 725.95 ± 0.4
328.15 K, x1 = 0.5057 | 734.85 ± 0.42
328.15 K, x1 = 0.5548 | 745.3 ± 0.45
328.15 K, x1 = 0.6006 | 755.62 ± 0.48
328.15 K, x1 = 0.6513 | 767.59 ± 0.51
328.15 K, x1 = 0.7013 | 780.04 ± 0.54
328.15 K, x1 = 0.7484 | 792.52 ± 0.58
328.15 K, x1 = 0.7954 | 805.67 ± 0.62
328.15 K, x1 = 0.8441 | 820.03 ± 0.66
328.15 K, x1 = 0.8954 | 836.18 ± 0.72
328.15 K, x1 = 0.9351 | 849.33 ± 0.76
328.15 K, x1 = 1 | 872.22 ± 0.83
